This experiment has as its system BDF1 mice, P388 leukemia ip, median survival T/C. The experiment can be described thus: NCI In Vivo Anticancer Drug Screen. Data for tumor model P388 Leukemia (intraperitoneal) in B6D2F1 (BDF1) mice. The settings on record: endpoint: median survival time, higher = longer survival. Summed up:
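Antitumour effect was judged in vivo: survival in drug-treated mice, normalised to that of vehicle-dosed controls, gives the reported T/C.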

Setting [1] is: dose: 25.0 mg/kg/injection, schedule: Q04DX003 (ip), vehicle: saline.
[2] abbreviates: dose: 50.0 mg/kg/injection, schedule: Q04DX003 (ip), vehicle: saline.
[3] abbreviates: dose: 100.0 mg/kg/injection, schedule: Q04DX003 (ip), vehicle: saline.
The mark [4] stands for this setting: dose: 100.0 mg/kg/injection, schedule: Q04DX003 (ip), vehicle: saline with Tween-80.
The mark [5] stands for this setting: dose: 200.0 mg/kg/injection, schedule: Q04DX003 (ip), vehicle: saline with Tween-80.
Setting [6] is: dose: 400.0 mg/kg/injection, schedule: Q04DX003 (ip), vehicle: saline with Tween-80.
Setting [7] is: dose: 25.0 mg/kg/injection, schedule: Q01DX009 (ip), vehicle: saline.
The mark [8] stands for this setting: dose: 50.0 mg/kg/injection, schedule: Q01DX009 (ip), vehicle: saline.
[9] abbreviates: dose: 200.0 mg/kg/injection, schedule: Q04DX003 (ip), vehicle: saline.
The mark [10] stands for this setting: dose: 400.0 mg/kg/injection, schedule: Q04DX003 (ip), vehicle: saline.

Several values for one entry are separate records, joined by “and”; a condition that tells them apart may be missing. Identical values can stand only once. Inconclusive results and toxic doses are left out.

Regarding `Nc1ncnc2c1ncn2C1OC(CO)C(O)C1O` (stereo not drawn), the T/C is 113 % of control (dose: 1.56 mg/kg/injection, schedule: Q#A X018 (ip), vehicle: saline with Tween-80); 100 % of control (dose: 3.13 mg/kg/injection, schedule: Q#A X018 (ip), vehicle: saline with Tween-80); 100 % of control (dose: 6.25 mg/kg/injection, schedule: Q#A X018 (ip), vehicle: saline with Tween-80); 105 % of control (dose: 10.0 mg/kg/injection, schedule: Q01DX009 (ip), vehicle: saline with Tween-80); 109 % of control (dose: 12.5 mg/kg/injection, schedule: Q#A X018 (ip), vehicle: saline with Tween-80); 120 % of control (dose: 14.0 mg/kg/injection, schedule: Q01DX009 (ip), vehicle: saline). Also, the T/C (dose: 20.0 mg/kg/injection, schedule: Q01DX009 (ip), vehicle: saline with Tween-80) was 91 % of control and 100 % of control; the T/C under setting [1] was 109 % of control; the T/C (dose: 40.0 mg/kg/injection, schedule: Q01DX009 (ip), vehicle: saline with Tween-80) was 114 % of control and 122 % of control; the T/C under setting [2] is 113 % of control; the T/C (dose: 78.0 mg/kg/injection, schedule: Q01DX009 (ip), vehicle: saline with Tween-80) was 178 % of control; the T/C (dose: 78.6 mg/kg/injection, schedule: Q01DX005 (ip), vehicle: water) was 108 % of control. Further, the T/C was 102 % of control (dose: 78.6 mg/kg/injection, schedule: Q01DX009 (ip), vehicle: water); 109 % of control under setting [3]; 184 % of control (dose: 110.0 mg/kg/injection, schedule: Q03HX024 (ip), vehicle: saline with Tween-80); 114 % of control (dose: 118.0 mg/kg/injection, schedule: Q01DX005 (ip), vehicle: water); 165 % of control (dose: 118.0 mg/kg/injection, schedule: Q01DX009 (ip), vehicle: saline with Tween-80); 105 % of control (dose: 118.0 mg/kg/injection, schedule: Q01DX009 (ip), vehicle: water). In addition, the T/C (dose: 160.0 mg/kg/injection, schedule: Q01DX009 (ip), vehicle: saline with Tween-80) is 151 % of control and 185 % of control; the T/C (dose: 160.0 mg/kg/injection, schedule: Q03HX024 (ip), vehicle: saline with Tween-80) is 206 % of control; the T/C (dose: 177.0 mg/kg/injection, schedule: Q01DX005 (ip), vehicle: water) is 111 % of control; the T/C (dose: 177.0 mg/kg/injection, schedule: Q01DX009 (ip), vehicle: saline with Tween-80) was 156 % of control and 169 % of control; the T/C (dose: 177.0 mg/kg/injection, schedule: Q01DX009 (ip), vehicle: water) is 112 % of control; the T/C (dose: 240.0 mg/kg/injection, schedule: Q03HX024 (ip), vehicle: saline with Tween-80) is 228 % of control. For the same molecule, the T/C is, setting by setting: (dose: 266.0 mg/kg/injection, schedule: Q01DX005 (ip), vehicle: water) 117 % of control; (dose: 266.0 mg/kg/injection, schedule: Q01DX009 (ip), vehicle: saline with Tween-80) 156 % of control and 166 % of control; (dose: 266.0 mg/kg/injection, schedule: Q01DX009 (ip), vehicle: water) 117 % of control; (dose: 320.0 mg/kg/injection, schedule: Q01DX009 (ip), vehicle: saline with Tween-80) 185 % of control; (dose: 400.0 mg/kg/injection, schedule: Q01DX005 (ip), vehicle: water) 117 % of control; (dose: 400.0 mg/kg/injection, schedule: Q01DX009 (ip), vehicle: water) 114 % of control. Besides, the T/C (dose: 900.0 mg/kg/injection, schedule: Q01DX009 (ip), vehicle: saline with Tween-80) was 155 % of control and 156 % of control.
For the molecule `CCC(=O)O[C@H]1CC[C@H]2[C@@H]3C[C@H](C)C4=CC(=O)C=C[C@]4(C)[C@H]3C(=O)C[C@]12C`, the T/C runs as follows: (dose: 100.0 mg/kg/injection, schedule: Q01DX009 (ip), vehicle: saline with Tween-80) 100 % of control; (dose: 200.0 mg/kg/injection, schedule: Q01DX009 (ip), vehicle: saline with Tween-80) 91 % of control; (dose: 400.0 mg/kg/injection, schedule: Q01DX009 (ip), vehicle: saline with Tween-80) 95 % of control.
For `CN(C)c1ccc(/C=N/Nc2ncnc3nc[nH]c23)cc1`, the T/C by setting is: under setting [4], 103 % of control; under setting [5], 96 % of control; under setting [6], 103 % of control.
With `C=CC(N)C(=O)O` (stereo not drawn), the T/C runs as follows: (dose: 100.0 mg/kg/injection, schedule: Q04DX002 (ip), vehicle: saline with Tween-80) 117 % of control; (dose: 200.0 mg/kg/injection, schedule: Q04DX002 (ip), vehicle: saline with Tween-80) 108 % of control; (dose: 400.0 mg/kg/injection, schedule: Q04DX002 (ip), vehicle: saline with Tween-80) 100 % of control.
For the molecule `CC(=O)/C=C/c1ccco1`, the T/C was 91 % of control (dose: 25.0 mg/kg/injection, schedule: Q01DX009 (ip), vehicle: DMSO); 107 % of control (dose: 25.0 mg/kg/injection, schedule: Q04DX003 (ip), vehicle: DMSO); 91 % of control (dose: 50.0 mg/kg/injection, schedule: Q01DX009 (ip), vehicle: DMSO); 92 % of control (dose: 50.0 mg/kg/injection, schedule: Q04DX003 (ip), vehicle: DMSO).
Turning to `NOCc1cccc(CON)c1`, the T/C (dose: 12.5 mg/kg/injection, schedule: Q01DX009 (ip), vehicle: saline) is 100 % of control; the T/C under setting [7] is 87 % of control; the T/C under setting [8] was 91 % of control; the T/C under setting [2] is 91 % of control; the T/C under setting [3] is 91 % of control; the T/C under setting [9] is 91 % of control.
Regarding `CSc1ccc(OC(=O)Nc2ccc(C)c([N+](=O)[O-])c2)cc1C`, the T/C runs as follows: under setting [4], 90 % of control; under setting [5], 95 % of control; under setting [6], 104 % of control.
For `O=C(c1cc(Cl)cc(Cl)c1)N1CC1`, the T/C reads like this: under setting [7], 106 % of control; under setting [1], 100 % of control; under setting [8], 113 % of control; under setting [2], 100 % of control; (dose: 100.0 mg/kg/injection, schedule: Q01DX009 (ip), vehicle: saline) 103 % of control; under setting [3], 98 % of control. The T/C is 113 % of control (dose: 200.0 mg/kg/injection, schedule: Q01DX009 (ip), vehicle: saline); 114 % of control under setting [9]; 113 % of control (dose: 400.0 mg/kg/injection, schedule: Q01DX009 (ip), vehicle: saline); 106 % of control under setting [10].
In the case of `Cc1cc(C)c(NS(=O)(=O)c2ccc([N+](=O)[O-])cc2)c(C)c1`, the T/C is 100 % of control (dose: 75.0 mg/kg/injection, schedule: Q01DX001 (ip), vehicle: saline with Tween-80); 90 % of control (dose: 150.0 mg/kg/injection, schedule: Q01DX001 (ip), vehicle: saline with Tween-80); 100 % of control (dose: 300.0 mg/kg/injection, schedule: Q01DX001 (ip), vehicle: saline with Tween-80).
`CCCCCCCCCCOP(=O)(O)OCCCCCCCCCC`: the T/C (dose: 12.5 mg/kg/injection, schedule: Q01DX009 (ip), vehicle: Klucel (hydroxypropylcellulose) (HPC)) was 95 % of control; the T/C (dose: 25.0 mg/kg/injection, schedule: Q01DX009 (ip), vehicle: Klucel (hydroxypropylcellulose) (HPC)) is 99 % of control; the T/C (dose: 50.0 mg/kg/injection, schedule: Q01DX009 (ip), vehicle: Klucel (hydroxypropylcellulose) (HPC)) was 95 % of control.
Consider `CCCCCCC(=O)/C=C/c1cccc(Cl)c1`, for which the T/C was 88 % of control under setting [3] and 100 % of control under setting [10].
With `COCc1ccc([N+](=O)[O-])cc1`, the T/C reads like this: (dose: 25.0 mg/kg/injection, schedule: Q01DX001 (ip), vehicle: saline with Tween-80) 101 % of control; (dose: 50.0 mg/kg/injection, schedule: Q01DX001 (ip), vehicle: saline with Tween-80) 95 % of control; (dose: 100.0 mg/kg/injection, schedule: Q01DX001 (ip), vehicle: saline with Tween-80) 96 % of control and 107 % of control.
As to `Clc1c(Cl)c(C[P+](CCP(c2ccccc2)c2ccccc2)(c2ccccc2)c2ccccc2)c(Cl)c(Cl)c1C[P+](CCP(c1ccccc1)c1ccccc1)(c1ccccc1)c1ccccc1`, the T/C (dose: 3.13 mg/kg/injection, schedule: Q01DX009 (ip), vehicle: suspension in saline) was 114 % of control.
Turning to `CNS(=O)(=O)c1ccc2c(c1)nc(SC)n2C`, the T/C reads like this: under setting [4], 100 % of control; under setting [5], 100 % of control; under setting [6], 104 % of control.

For the origin of these results see PubChem BioAssay AID328 (DTP/NCI, 2004).
